Source: US20230398130A1, “METHODS AND COMPOSITIONS FOR DIFFERENTIATING STEM CELLS” (Massachusetts Institute of Technology, priority 2020, published 2023)
Entries after “also recorded” stand apart in the source; their conditions may differ. Read-outs that look alike come from different tables or passages of the source.

Legend:
[1] = tested on: ISC-enriched organoids; experiment: Lysozyme secretion assay, 3-D organoids in ENR, normalized to ATP; type: cell-based, murine; conditions: 6 hit compounds, 6 days ENR, 10 μM Cch 3 h
Procedure: Lysozyme assay (3D culture). ISC-enriched organoids cultured in 3D Matrigel with ENRCV media were passaged to 48-well plate in 3D Matrigel with ENRCV. At day zero, media were replaced to ENR or ENRCD with or without indicated compounds, and media were replaced every other day. At day six, cells were washed twice with basal media and treated with carbamylcholine chloride (Sigma, C4382) for 3 hours. Media were collected and lysozyme activity was measured by EnzChek Lysozyme Assay Kit (ThermoFisher, E22013).
Lysozyme secretion assay. ISC-enriched organoids in 3D Matrigel culture were passaged to a 48- or 96-well plate and cultured with ENR or ENR+CD media containing DMSO or each drug for 6 days. DMSO- or drug-containing media were changed every other day. […] The fluorescence was measured using excitation/emission of 485/530 nm. […] The solution was replaced to a 96-well white microplate, and luminescent signals were measured by a microplate reader (infinite M200, Tecan). […] For both assays, a polynomial cubic curve was fitted to a set of standard data, and each sample value was calculated on the Microsoft Excel.
Lysozyme secretion assay. […] The fluorescence was measured using excitation/emission of 485/530 nm. […] The solution was replaced to a 96-well white microplate, and luminescent signals were measured by a microplate reader (infinite M200, Tecan). […]

[2] = tested on: Paneth cells; experiment: In vivo oral gavage of KPT-330 every other day for two weeks: histological counting of Paneth, Olfm4+ stem and PAS+ goblet cells in small intestine; design: species or system C57BL/6 wild-type mice
Procedure: Applicants tracked animal weight every other day, and at day 14 collected the proximal and distal thirds of the small intestine for histological quantification of Paneth, stem, and goblet populations (FIG. 26A). […] Samples were prepared for histology by the 'swiss-roll' technique, and following staining, were blinded and randomized before manual counting of well-preserved features. […] Animal study. 8-10 weeks old wild type C57BL/6NCrl male mice (#027) were purchased from Charles River. […] All animal studies are approved by the Committee on Animal Care (CAC) at Massachusetts Institute of Technology. Histology. The small intestine (SI) was collected from mice and divided into three parts. Only proximal and distal SI were kept in PBS, and medial SI was discarded. Each SI was opened longitudinally and washed in PBS. […] Fixed tissues were embedded in paraffin, and […] sections were mounted on slides. […] For McManus Periodic Acid Schiff (PAS) reaction, slides were deparaffinized, oxidized in periodic acid, and stained with Schiff reagent (Poly Scientific, s272) followed by counterstaining with Harris Hematoxylin. Slides were scanned by Aperio Slide Scanner (Leica) and cells were counted on Aperio eSlide Manager. Slides were randomized before counting, and all cell types were counted in all well-preserved crypts along the longitudinal crypt-villus axis. […] Because Paneth cell number and quality is known to physiologically change along the length of the small intestine, and diseases associated with Paneth cells most frequently present distally^56, Applicants sought to profile how XPO1 inhibition may differentially affect proximal and distal small intestine. Applicants tracked animal weight every other day and collected the proximal and distal thirds of the small intestine at day 14 for histological quantification of Paneth, stem, and goblet populations (FIG. 61A). […] Paneth cells were counted within well-preserved crypts-with at least 30 crypts quantified per animal (representative images FIG. 62C) and the counts were averaged. […] Animal study. 8-10 weeks old wild type C57BL/6NCrl male mice (#027) were purchased from Charles River. […] All animal studies are approved by the Committee on Animal Care (CAC) at Massachusetts Institute of Technology. Histology. The small intestine (SI) was collected from mice and divided into three parts. Only proximal and distal SI were kept in PBS, and medial SI was discarded. Each SI was opened longitudinally and washed in PBS. […] Fixed tissues were embedded in paraffin, and […] sections were mounted on slides. […] For McManus Periodic Acid Schiff (PAS) reaction, slides were deparaffinized, oxidized in periodic acid, and stained with Schiff reagent (Poly Scientific, s272) followed by counterstaining with Harris Hematoxylin. Slides were scanned by Aperio Slide Scanner (Leica) and cells were counted on Aperio eSlide Manager. Slides were blinded and randomized before counting, and all cell types were counted in all well-preserved crypts along the longitudinal crypt-villus axis (Paneth cell: >30 crypts, Olfm4+ cell: ≥17 crypts, Goblet cell: >15 villi, per sample). For the Goblet cell images, the samples that include less than 15 well-preserved crypt-villus axes were excluded, which was predetermined.

[3] = tested on: ISC-enriched organoids; experiment: Primary screen, 384-well 2.5-D organoid differentiation (ENR+CD, 6 days): basal lysozyme secretion (LYZ.NS); type: cell-based, murine; conditions: strictly standardized mean difference, primary screen
Description: High-throughput screening.

[4] = tested on: small intestine; design: cycling cell number: dose or concentration left out as unconfirmed
Description: FIG. 20—KPT-330 treatment in vivo.
FIG. 21A-21C—Analysis of samples collected from the mice of FIG. 20. A. Western blot for lysozyme of samples collected from the small intestine proximal region. B. Graph showing band intensity of the western blot in (A). C. Histological analysis of the distal small intestine from control and treated mice using immunohistochemistry for lysozyme.
FIG. 22—Analysis of samples collected from the mice of FIG. 20. […] Graphs showing Paneth cell, Goblet cell, and cycling cell numbers in the proximal and distal small intestines under each treatment condition using markers for each cell type.

O=C(/C=C\n1cnc(-c2cc(C(F)(F)F)cc(C(F)(F)F)c2)n1)NNc1cnccn1 [KPT-330]
Paneth cell-specific activity (LYZ secretion) in conventional ENR culture [1]: enhancing Paneth cell-specific activity | Olfm4+ stem cells per crypt ([2]; 0.01 mg/kg, distal SI, day 14): significant increase in Olfm4+ stem cells | fraction of crypts with more Paneth cells than the vehicle 90th percentile cutoff (5 per crypt) ([2]; 0.01 mg/kg, distal small intestine): 27.9% | Paneth cell abundance per crypt ([2]; 0.01 mg/kg, distal small intestine, day 14): significant increases in Paneth cell abundance | Paneth cell abundance per crypt ([2]; 0.01 mg/kg, proximal small intestine, day 14): significant increases in Paneth cell abundance | fraction of crypts with more Paneth cells than the vehicle 90th percentile cutoff (4 per crypt) ([2]; 0.2 mg/kg, proximal small intestine): 15.5% | Paneth cell abundance per crypt ([2]; 0.2 mg/kg, proximal small intestine, day 14): significant increases in Paneth cell abundance | PAS+ goblet cell population ([2]; 0.01-0.2 mg/kg, proximal and distal SI, day 14): did not overserve any significant changes; also recorded: did not identify any significant changes | additional Paneth cells per crypt in vivo ([2]; low dose KPT-330): 0.5-1 Paneth cells per crypt | SSMD.LYZ.NS ([3]; 1st of the 4 dose lines of the treatment (dose not given)): 1.021 | SSMD.LYZ.NS ([3]; 2nd of the 4 dose lines of the treatment (dose not given)): −1.822 | SSMD.LYZ.NS ([3]; 3rd of the 4 dose lines of the treatment (dose not given)): −1.556 | SSMD.LYZ.NS ([3]; 4th of the 4 dose lines of the treatment (dose not given)): −1.714 | Paneth cell number ([4]; distal small intestines, high dose): the high dose decreased Paneth cells | cycling cell number ([4]; distal small intestines, low dose): significant increase in cycling cell number | toxicity to mice ([4]; mouse, in vivo): toxic to mice | Paneth cell number ([4]; proximal small intestines): no significant shift in Paneth cell number | goblet cell numbers ([4]; proximal/distal small intestines): no significant shift in goblet cell numbers, but the trend was an increase
